Earlier results in patent EP3581172B1, “A PHARMACEUTICAL COMPOSITION WITH ENHANCED BIOAVAILABILITY CONTAINING A MEDICAL HERBAL EXTRACT” (TFLL Pharmaceutical Food Supplements and Cosmetic Products …, priority 2018, dated 2019).
Where two headings read alike, the source gives them in different places.

Columns and labels:
[1] = tested on: colon cancer stimulated by 1,2-dimethylhydrazine (DMH)
breast cancer = details: topical curcumin ointment; 7 breast cancer patients
[2] = tested on: esophageal carcinogenesis; details: rats, by diet (500 ppm)
adenoma = details: rats

COc1ccc(/C=C/C(=O)CC(=O)/C=C/c2ccc(OC)c(OC)c2)cc1OC [dimethoxycurcumin]
reducing proliferation and stimulating apoptosis, compared to curcumin (HCT116 cells): more effective

COc1cc(CCC(=O)CC(=O)CCc2ccc(O)c(OC)c2)ccc1O [THC, tetrahydrokurkuminin]
effect on upper and lower half sections of colon crypts [1]: significant decrease

COc1cc(/C=C/C(=O)CC(=O)/C=C/c2ccc(O)c(OC)c2)ccc1O [curcumin, (1E,6E)-1,7-bis (4-hydroxy-3-methoxyphenyl)-1,6-heptadiene-3,5-dione]
positive responses (significant reduction in lesion size, pain, itching and leaks), share of patients (breast cancer): 71%
esophageal carcinogenesis inhibited ([2]; maintenance dose): 33%
esophageal carcinogenesis inhibited ([2]; onset dose): 27%
decrease in adenoma (adenoma; by diet 0.2% for 15 weeks): 39%
decrease in adenoma (adenoma; by diet 0.5% for 15 weeks): 40%
water solubility: almost negligible
